pEC50: −log10 of the molar value.
Species: Rattus norvegicus
Assay: GABA-B agonistic activity in rat anococcygeus
Assay type: functional

NCC(c1ccc(Cl)cc1)C(F)(F)P(=O)(O)O (stereo unspecified)
pEC50: ~3.52
